In the supplement of paper PMC13207355:

Columns and labels:
Settings in all cases: exposure time: 72 h
E31 [1] = patient-derived glioblastoma stem cells of proneural subtype; assay: phenotypic distance (Euclidean, principal components) from DMSO controls (arbitrary units); higher = stronger morphological change
E34 [2] = patient-derived glioblastoma stem cells of proneural subtype; assay: as above
E13 [3] = patient-derived glioblastoma stem cells of classical subtype; assay: as above
E28 [4] = patient-derived glioblastoma stem cells of classical subtype; assay: as above
E21 [5] = patient-derived glioblastoma stem cells of mesenchymal subtype; assay: as above
FT3469 [6] = normal neural stem cell line; assay: as above
E57 [7] = patient-derived glioblastoma stem cells of mesenchymal subtype; assay: as above
E31 [8] = assay: surviving fraction (nuclei count normalised to DMSO); higher = more cells surviving (less toxic)
E34 [9] = assay: as above
E13 [10] = assay: as above
E28 [11] = assay: as above
E21 [12] = assay: as above
FT3469 [13] = assay: as above
E57 [14] = assay: as above
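Wherever phenotypic distance (Euclidean, principal components) from DMSO controls is given: cell Painting imaging in 384-well plates, CellProfiler features reduced to at least 20 principal components, Euclidean distance versus same-plate DMSO vehicle wells (0.1% v/v), median over six images per well.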
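Wherever surviving fraction (nuclei count normalised to DMSO) is given: nuclei counted by high-content imaging of Hoechst-stained cells in laminin-coated 384-well plates, relative to 0.1% DMSO vehicle wells, with staurosporine as cell-death control.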

CC1=C(/C=C/C(C)=C/C=C/C(C)=C/C(=O)Nc2ccc(O)cc2)C(C)(C)CCC1 [Retinoic acid p-hydroxyanilide]
Settings | phenotypic distance | surviving fraction
E13 [3], 4.1 nM | 0.545 | –
E13 [3], 12.3 nM | 0.333 | –
E13 [3], 37 nM | 0.641 | –
E13 [3], 333.3 nM | 3.32 | –
E13 [3], 1000 nM | 4.24 | –
E13 [3], 3000 nM | 9.85 | –
E13 [10], 4.1 nM | – | 0.963
E13 [10], 12.3 nM | – | 0.967
E13 [10], 37 nM | – | 1.09
E13 [10], 333.3 nM | – | 1.07
E13 [10], 1000 nM | – | 0.734
E13 [10], 3000 nM | – | 0.00947
E21 [5], 4.1 nM | 0.779 | –
E21 [5], 12.3 nM | 0.993 | –
E21 [5], 37 nM | 0.775 | –
E21 [5], 333.3 nM | 1.03 | –
E21 [5], 1000 nM | 2.42 | –
E21 [5], 3000 nM | 10.8 | –
E21 [12], 4.1 nM | – | 1.05
E21 [12], 12.3 nM | – | 0.947
E21 [12], 37 nM | – | 0.953
E21 [12], 333.3 nM | – | 1.02
E21 [12], 1000 nM | – | 0.781
E21 [12], 3000 nM | – | 0.00532
E28 [4], 4.1 nM | 0.643 | –
E28 [4], 12.3 nM | 0.734 | –
E28 [4], 37 nM | 0.511 | –
E28 [4], 333.3 nM | 0.842 | –
E28 [4], 1000 nM | 1.73 | –
E28 [4], 3000 nM | 19.3 | –
E28 [11], 4.1 nM | – | 1.11
E28 [11], 12.3 nM | – | 0.963
E28 [11], 37 nM | – | 1.13
E28 [11], 333.3 nM | – | 1.08
E28 [11], 1000 nM | – | 0.931
E28 [11], 3000 nM | – | 0.00413
E31 [1], 4.1 nM | 0.825 | –
E31 [1], 12.3 nM | 0.482 | –
E31 [1], 37 nM | 0.638 | –
E31 [1], 333.3 nM | 1.69 | –
E31 [1], 1000 nM | 2.86 | –
E31 [1], 3000 nM | 18.6 | –
E31 [8], 4.1 nM | – | 0.912
E31 [8], 12.3 nM | – | 0.905
E31 [8], 37 nM | – | 0.993
E31 [8], 333.3 nM | – | 1.05
E31 [8], 1000 nM | – | 0.927
E31 [8], 3000 nM | – | 0.00743
E34 [2], 4.1 nM | 0.884 | –
E34 [2], 12.3 nM | 0.569 | –
E34 [2], 37 nM | 0.817 | –
E34 [2], 333.3 nM | 1.4 | –
E34 [2], 1000 nM | 2.38 | –
E34 [2], 3000 nM | 19.6 | –
E34 [9], 4.1 nM | – | 1.28
E34 [9], 12.3 nM | – | 1.05
E34 [9], 37 nM | – | 0.937
E34 [9], 333.3 nM | – | 1.08
E34 [9], 1000 nM | – | 0.967
E34 [9], 3000 nM | – | 0.00196
E57 [7], 4.1 nM | 0.591 | –
E57 [7], 12.3 nM | 0.726 | –
E57 [7], 37 nM | 0.599 | –
E57 [7], 333.3 nM | 0.631 | –
E57 [7], 1000 nM | 1.92 | –
E57 [7], 3000 nM | 15.3 | –
E57 [14], 4.1 nM | – | 1.12
E57 [14], 12.3 nM | – | 1.08
E57 [14], 37 nM | – | 1.05
E57 [14], 333.3 nM | – | 1.06
E57 [14], 1000 nM | – | 1.03
E57 [14], 3000 nM | – | 0.00394
FT3469 [6], 4.1 nM | 0.589 | –
FT3469 [6], 12.3 nM | 0.564 | –
FT3469 [6], 37 nM | 0.708 | –
FT3469 [6], 333.3 nM | 1.89 | –
FT3469 [6], 1000 nM | 2.61 | –
FT3469 [6], 3000 nM | 17.7 | –
FT3469 [13], 4.1 nM | – | 1
FT3469 [13], 12.3 nM | – | 1.04
FT3469 [13], 37 nM | – | 1.04
FT3469 [13], 333.3 nM | – | 0.89
FT3469 [13], 1000 nM | – | 0.901
FT3469 [13], 3000 nM | – | 0.0056

C/C=C1\NC(=O)[C@H]2CSSCC/C=C/[C@H](CC(=O)N[C@H](C(C)C)C(=O)N2)OC(=O)[C@H](C(C)C)NC1=O [Romidepsin]
Settings | phenotypic distance | surviving fraction
E13 [3], 4.1 nM | 4.99 | –
E13 [3], 12.3 nM | 4.79 | –
E13 [3], 37 nM | 4.79 | –
E13 [3], 111.1 nM | 5.03 | –
E13 [3], 333.3 nM | 4.51 | –
E13 [3], 1000 nM | 6.31 | –
E13 [3], 3000 nM | 8.31 | –
E13 [10], 4.1 nM | – | 0.219
E13 [10], 12.3 nM | – | 0.212
E13 [10], 37 nM | – | 0.191
E13 [10], 111.1 nM | – | 0.211
E13 [10], 333.3 nM | – | 0.169
E13 [10], 1000 nM | – | 0.0814
E13 [10], 3000 nM | – | 0.00947
E21 [5], 4.1 nM | 6.02 | –
E21 [5], 12.3 nM | 7.55 | –
E21 [5], 37 nM | 7.46 | –
E21 [5], 111.1 nM | 6.75 | –
E21 [5], 333.3 nM | 7.68 | –
E21 [5], 1000 nM | 9.06 | –
E21 [5], 3000 nM | 20.2 | –
E21 [12], 4.1 nM | – | 0.102
E21 [12], 12.3 nM | – | 0.0766
E21 [12], 37 nM | – | 0.0713
E21 [12], 111.1 nM | – | 0.0809
E21 [12], 333.3 nM | – | 0.049
E21 [12], 1000 nM | – | 0.00532
E21 [12], 3000 nM | – | 0
E28 [4], 4.1 nM | 4.95 | –
E28 [4], 12.3 nM | 5.55 | –
E28 [4], 37 nM | 5.4 | –
E28 [4], 111.1 nM | 4.65 | –
E28 [4], 333.3 nM | 5.39 | –
E28 [4], 1000 nM | 5.54 | –
E28 [4], 3000 nM | 6.46 | –
E28 [11], 4.1 nM | – | 0.157
E28 [11], 12.3 nM | – | 0.153
E28 [11], 37 nM | – | 0.138
E28 [11], 111.1 nM | – | 0.194
E28 [11], 333.3 nM | – | 0.17
E28 [11], 1000 nM | – | 0.17
E28 [11], 3000 nM | – | 0.0691
E31 [1], 4.1 nM | 12.3 | –
E31 [1], 12.3 nM | 10.3 | –
E31 [1], 37 nM | 11 | –
E31 [1], 111.1 nM | 8.91 | –
E31 [1], 333.3 nM | 7.47 | –
E31 [1], 1000 nM | 18.1 | –
E31 [1], 3000 nM | 7.62 | –
E31 [8], 4.1 nM | – | 0.00149
E31 [8], 12.3 nM | – | 0.0134
E31 [8], 37 nM | – | 0.00446
E31 [8], 111.1 nM | – | 0.00892
E31 [8], 333.3 nM | – | 0.00594
E31 [8], 1000 nM | – | 0.00446
E31 [8], 3000 nM | – | 0.00892
E34 [2], 4.1 nM | 8.64 | –
E34 [2], 12.3 nM | 7.96 | –
E34 [2], 37 nM | 9.03 | –
E34 [2], 111.1 nM | 8.78 | –
E34 [2], 333.3 nM | 7.71 | –
E34 [2], 1000 nM | 8.57 | –
E34 [2], 3000 nM | 7.26 | –
E34 [9], 4.1 nM | – | 0.302
E34 [9], 12.3 nM | – | 0.292
E34 [9], 37 nM | – | 0.271
E34 [9], 111.1 nM | – | 0.359
E34 [9], 333.3 nM | – | 0.286
E34 [9], 1000 nM | – | 0.245
E34 [9], 3000 nM | – | 0.1
E57 [7], 4.1 nM | 8.58 | –
E57 [7], 12.3 nM | 7.79 | –
E57 [7], 37 nM | 9.5 | –
E57 [7], 111.1 nM | 9.16 | –
E57 [7], 333.3 nM | 8.37 | –
E57 [7], 1000 nM | 9.9 | –
E57 [7], 3000 nM | 11.1 | –
E57 [14], 4.1 nM | – | 0.062
E57 [14], 12.3 nM | – | 0.0535
E57 [14], 37 nM | – | 0.0389
E57 [14], 111.1 nM | – | 0.0558
E57 [14], 333.3 nM | – | 0.0428
E57 [14], 1000 nM | – | 0.0349
E57 [14], 3000 nM | – | 0.00732
FT3469 [6], 4.1 nM | 3.71 | –
FT3469 [6], 12.3 nM | 2.82 | –
FT3469 [6], 37 nM | 3.47 | –
FT3469 [6], 111.1 nM | 2.86 | –
FT3469 [6], 333.3 nM | 3.77 | –
FT3469 [6], 1000 nM | 5.6 | –
FT3469 [6], 3000 nM | 8.06 | –
FT3469 [13], 4.1 nM | – | 0.237
FT3469 [13], 12.3 nM | – | 0.267
FT3469 [13], 37 nM | – | 0.31
FT3469 [13], 111.1 nM | – | 0.274
FT3469 [13], 333.3 nM | – | 0.321
FT3469 [13], 1000 nM | – | 0.123
FT3469 [13], 3000 nM | – | 0.0672
